# According to article PMC8359193, “Summary of reference chemicals evaluated by the fish short‐term reproduction assay, OECD TG229, using Japanese Medaka, Oryzias latipes” (Journal of Applied Toxicology, 2021):
# Columns and labels:
# [1] = system: Japanese medaka (Oryzias latipes); assay: Fish short-term reproduction assay (FSTRA, OECD TG229), 21-day flow-through exposure; details: for Fertility rate (%) / Mortality (%) Female / Mortality (%) Male / Number of fertilized eggs / Number of total eggs / SSC Female / SSC Male / VTG (ng/mg of liver) Female / VTG (ng/mg of liver) Male: 21 days; for GSI Female / GSI Male / HSI Female / HSI Male / Length Female / Length Male / Weight Female / Weight Male: at completion of exposure
# Outline: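 Run to OECD TG229: mature NIES-R medaka pairs (3♂/3♀ per vessel, 4 vessels per treatment plus dilution water control) were dosed by continuous flow-through for 21 days. Test concentrations were spaced 2- to 5-fold. Daily spawned eggs were counted under the microscope for fertilized versus unfertilized.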
# [2] = system: fathead minnow; design: method as in Panter et al. (2004); details: 21-day exposure; ref Panter et al. (2004); cited from earlier work
# [3] = molecular target: medaka ARβ (mARβ) (Oryzias latipes, UniProt D1MV73); assay: Medaka ARβ reporter gene assay (RGA), antagonist assay with 50 nM 11KT, HepG2 cells; format: cell-based, Japanese medaka (Oryzias latipes); details: 50 nM 11KT-induced mARβ activity
# Sequence of medaka ARβ (mARβ) (D1MV73 entry or part of it): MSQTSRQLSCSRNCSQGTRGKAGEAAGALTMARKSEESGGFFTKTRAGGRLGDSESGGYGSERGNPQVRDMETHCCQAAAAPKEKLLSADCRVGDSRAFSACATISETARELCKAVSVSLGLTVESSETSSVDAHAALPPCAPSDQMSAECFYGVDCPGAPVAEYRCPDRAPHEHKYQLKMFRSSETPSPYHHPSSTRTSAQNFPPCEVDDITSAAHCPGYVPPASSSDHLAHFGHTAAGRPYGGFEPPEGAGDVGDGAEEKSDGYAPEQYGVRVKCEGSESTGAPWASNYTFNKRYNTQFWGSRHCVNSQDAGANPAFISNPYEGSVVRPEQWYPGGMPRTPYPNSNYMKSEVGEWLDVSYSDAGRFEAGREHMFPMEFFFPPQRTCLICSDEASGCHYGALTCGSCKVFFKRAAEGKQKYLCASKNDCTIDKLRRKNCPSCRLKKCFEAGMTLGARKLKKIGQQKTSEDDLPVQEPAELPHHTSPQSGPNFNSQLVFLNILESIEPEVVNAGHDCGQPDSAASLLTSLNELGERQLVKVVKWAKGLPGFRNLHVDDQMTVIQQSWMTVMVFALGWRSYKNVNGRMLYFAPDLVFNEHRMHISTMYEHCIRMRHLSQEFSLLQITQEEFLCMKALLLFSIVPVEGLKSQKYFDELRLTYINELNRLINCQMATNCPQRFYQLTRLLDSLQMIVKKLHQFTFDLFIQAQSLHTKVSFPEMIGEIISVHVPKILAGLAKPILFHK
# Experimental: To support interpretation of the biological effects observed in the FSTRA studies, in vitro RGAs using medaka Esr1 (mEsr1) and medaka ARβ (mARβ) were performed for the 16 test chemicals. In the present study, Esr1 and ARβ, which are ancestral subtypes among Esrs and ARs in Japanese medaka, were selected based on the phylogenetical analyses of Esr and AR with each receptor RGAs (Ogino et al., [2016], [2018]; Tohyama et al., [2015]).
# The mARβ RGA in which the agonist and the antagonist assays were performed as same as the mEsr1 RGA was carried out according to the methods previously reported by Lange et al. ([2015]). For the assays, human liver cancer cell line, HepG2, was used as the host cells, and mARβ/pcDNA3.1, MMTV‐Luc, and pRL‐TK‐Rlu were used as mARβ expression vector, reporter vector, and internal control vector, respectively. Other materials and methods, for example, operating procedure, reagents, and incubation conditions, were almost the same as the mEsr1 RGA previously described beside that 11KT (Sigma‐Aldrich, purity 99.0%), a main AR ligand in fish, was competitively spiked at 50 nM into the test medium with test chemicals in antagonist assay. In the agonist and the antagonist assays, 11KT and 2‐hydroxyflutamide (2HFLT; Sigma‐Aldrich, purity 98.5%) were used as positive controls, respectively.
# Effect concentrations, that is, EC50 (a half maximal effective concentration) in the agonist assay and IC50 (a half maximal inhibitory concentration) in the antagonist assay, were estimated by nonlinear curve fitting (e.g., three parameters logistic regression curve) using GraphPad Prism (GraphPad Software Inc., La Jolla, CA, USA).
compound,measurement,setting,value
"CC(C)C(=O)Nc1ccc([N+](=O)[O-])c(C(F)(F)F)c1 [FLT, Flutamide]",Fertility rate (%),[1]; measured conc. 119 μg/L,94%
same,Mortality (%) Female,[1]; measured conc. 119 μg/L,0%
same,Mortality (%) Male,[1]; measured conc. 119 μg/L,0%
same,Number of fertilized eggs,[1]; measured conc. 119 μg/L,25
same,Number of total eggs,[1]; measured conc. 119 μg/L,26 ± 2.3 /female/day
same,SSC Female,[1]; measured conc. 119 μg/L,0 ± 0
same,SSC Male,[1]; measured conc. 119 μg/L,86 ± 18
same,VTG (ng/mg of liver) Female,[1]; measured conc. 119 μg/L,908 ± 255 ng/mg of liver
same,VTG (ng/mg of liver) Male,[1]; measured conc. 119 μg/L,47.9 ± 41.8 ng/mg of liver
same,GSI Female,[1]; measured conc. 119 μg/L,10.1%
same,GSI Male,[1]; measured conc. 119 μg/L,1.10%
same,HSI Female,[1]; measured conc. 119 μg/L,4.2%
same,HSI Male,[1]; measured conc. 119 μg/L,2.0%
same,Length Female,[1]; measured conc. 119 μg/L,34.2 mm
same,Length Male,[1]; measured conc. 119 μg/L,35.6 mm
same,Weight Female,[1]; measured conc. 119 μg/L,426 mg
same,Weight Male,[1]; measured conc. 119 μg/L,445 mg
same,Fertility rate (%),[1]; measured conc. 248 μg/L,94%
same,Mortality (%) Female,[1]; measured conc. 248 μg/L,0%
same,Mortality (%) Male,[1]; measured conc. 248 μg/L,0%
same,Number of fertilized eggs,[1]; measured conc. 248 μg/L,26
same,Number of total eggs,[1]; measured conc. 248 μg/L,28 ± 3.1 /female/day
same,SSC Female,[1]; measured conc. 248 μg/L,0 ± 0
same,SSC Male,[1]; measured conc. 248 μg/L,82 ± 15
same,VTG (ng/mg of liver) Female,[1]; measured conc. 248 μg/L,970 ± 200 ng/mg of liver
same,VTG (ng/mg of liver) Male,[1]; measured conc. 248 μg/L,35.8 ± 41.5 ng/mg of liver
same,GSI Female,[1]; measured conc. 248 μg/L,10.9%
same,GSI Male,[1]; measured conc. 248 μg/L,1.10%
same,HSI Female,[1]; measured conc. 248 μg/L,4.6%
same,HSI Male,[1]; measured conc. 248 μg/L,2.1%
same,Length Female,[1]; measured conc. 248 μg/L,33.7 mm
same,Length Male,[1]; measured conc. 248 μg/L,35.0 mm
same,Weight Female,[1]; measured conc. 248 μg/L,428 mg
same,Weight Male,[1]; measured conc. 248 μg/L,394 mg
same,Fertility rate (%),[1]; measured conc. 497 μg/L,96%
same,Mortality (%) Female,[1]; measured conc. 497 μg/L,0%
same,Mortality (%) Male,[1]; measured conc. 497 μg/L,0%
same,Number of fertilized eggs,[1]; measured conc. 497 μg/L,27
same,Number of total eggs,[1]; measured conc. 497 μg/L,28 ± 3.0 /female/day
same,SSC Female,[1]; measured conc. 497 μg/L,0 ± 0
same,SSC Male,[1]; measured conc. 497 μg/L,82 ± 16
same,VTG (ng/mg of liver) Female,[1]; measured conc. 497 μg/L,812 ± 159 ng/mg of liver
same,VTG (ng/mg of liver) Male,[1]; measured conc. 497 μg/L,38.7 ± 44.8 ng/mg of liver
same,GSI Female,[1]; measured conc. 497 μg/L,10.3%
same,GSI Male,[1]; measured conc. 497 μg/L,1.20%
same,HSI Female,[1]; measured conc. 497 μg/L,4.8%
same,HSI Male,[1]; measured conc. 497 μg/L,1.9%
same,Length Female,[1]; measured conc. 497 μg/L,34.3 mm
same,Length Male,[1]; measured conc. 497 μg/L,35.9 mm
same,Weight Female,[1]; measured conc. 497 μg/L,470 mg
same,Weight Male,[1]; measured conc. 497 μg/L,429 mg
same,Fertility rate (%),[1]; measured conc. 925 μg/L,93%
same,Mortality (%) Female,[1]; measured conc. 925 μg/L,0%
same,Mortality (%) Male,[1]; measured conc. 925 μg/L,0%
same,Number of fertilized eggs,[1]; measured conc. 925 μg/L,27
same,Number of total eggs,[1]; measured conc. 925 μg/L,29 ± 3.1 /female/day
same,SSC Female,[1]; measured conc. 925 μg/L,0 ± 0
same,SSC Male,[1]; measured conc. 925 μg/L,93 ± 16
same,VTG (ng/mg of liver) Female,[1]; measured conc. 925 μg/L,830 ± 131 ng/mg of liver
same,VTG (ng/mg of liver) Male,[1]; measured conc. 925 μg/L,50.8 ± 53.8 ng/mg of liver
same,GSI Female,[1]; measured conc. 925 μg/L,11.5%
same,GSI Male,[1]; measured conc. 925 μg/L,1.10%
same,HSI Female,[1]; measured conc. 925 μg/L,4.5%
same,HSI Male,[1]; measured conc. 925 μg/L,2.0%
same,Length Female,[1]; measured conc. 925 μg/L,34.2 mm
same,Length Male,[1]; measured conc. 925 μg/L,35.8 mm
same,Weight Female,[1]; measured conc. 925 μg/L,453 mg
same,Weight Male,[1]; measured conc. 925 μg/L,416 mg
same,"effect on fecundity (number of total eggs), in words","[1]; within the test concentrations, 21-day exposure",No effect
same,concentration that significantly reduced the number of nuptial tubercles in males,[2],938.6 µg/L
same,mARβ antagonist activity (in words),[3],inhibited
